# Measurements taken from patent publication US20050197407A1, “Method and preparation for reducing irritation and/or inflammatory reaction in human skin” (PCR Technology Holdings, LC, priority 2004, published 2005).
# Tested on: facial skin of humans
# Assay: Retinoid irritation test: idebenone pre-treatment then prescription retinoid, clinician grading and TEWL
# Assay type: in vivo
# Protocol: In a test, idebenone was applied to the facial skin of humans. Two different test sites were setup whereby, one site was applied with idebenone twice a day for 2 weeks followed by a 2 week application period of a prescription retinoid (once a day, as prescribed). The remaining site was applied for 2 weeks just the prescription retinoid (once a day, as prescribed). Each test site was evaluated by a trained clinician for irritation and roughness using a 0 (none) to 4 (severe) scale pre and post retinoid treatment. Additionally, transepidermal water loss measurements (TEWL) were also made at the same time as visual evaluations.
# FIG. 1 graphically depicts the results of the test.
# [1] = facial skin, pre vs post 2 week retinoid treatment once a day, idebenone site pre-treated twice a day for 2 weeks
structure (smiles),measurement,setting,value
"COC1=C(OC)C(=O)C(CCCCCCCCCCO)=C(C)C1=O [Idebenone, 6-(10-hydroxydecyl)-2,3-dimethoxy-5-methyl-1,4-benzoquinone]","increase in irritation (0 (none) to 4 (severe) scale, trained clinician)",[1],moderate to minimal increase
same,"increase in roughness (0 (none) to 4 (severe) scale, trained clinician)",[1],moderate to minimal increase
same,increase in transepidermal water loss measurements (TEWL),[1],moderate to minimal increase
same,irritation potential produced by the prescription retinoid,idebenone used as a pre-treatment for 2 weeks,significantly reduced
